Source: ChEMBL document CHEMBL1201862, “PubChem BioAssay data set” (2004)
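The compound was tested at five concentrations on cells cultured in 96-well plates, with a 48-hour exposure period. Here, GI50 denotes the concentration required for 50% inhibition of growth.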 Activity calls are given as the source filed them. No stated cut-off is given here; in the data, active = GI50 up to about 1.1 µM and inactive = higher.

Columns and labels:
Assay in all cases: NCI anticancer screen, dose series, 48 h
MDA-N = test system: MDA-N
HCC 2998 = test system: HCC 2998
HCT-116 = test system: HCT-116
HCT-15 = test system: HCT-15
T47D = test system: T47D
NCI/ADR-RES = test system: NCI/ADR-RES
UO-31 = test system: UO-31
NCI-H23 = test system: NCI-H23
SF-295 = test system: SF-295
786-0 = test system: 786-0
HT-29 = test system: HT-29
SW-620 = test system: SW-620
M14 = test system: M14
DU-145 = test system: DU-145
OVCAR-5 = test system: OVCAR-5
PC-3 = test system: PC-3
SK-MEL-5 = test system: SK-MEL-5
COLO 205 = test system: COLO 205
SK-OV-3 = test system: SK-OV-3
ACHN = test system: ACHN
Malme-3M = test system: Malme-3M
SF-268 = test system: SF-268
A549 = test system: A549
KM12 = test system: KM12
NCI-H522 = test system: NCI-H522
A498 = test system: A498
SK-MEL-28 = test system: SK-MEL-28
RPMI-8226 = test system: RPMI-8226
SR = test system: SR
UACC-62 = test system: UACC-62
SNB-75 = test system: SNB-75
OVCAR-8 = test system: OVCAR-8
EKVX = test system: EKVX
MCF7 = test system: MCF7
IGROV-1 = test system: IGROV-1
BT-549 = test system: BT-549
NCI-H460 = test system: NCI-H460
NCI-H226 = test system: NCI-H226
MOLT-4 = test system: MOLT-4
LOX IMVI = test system: LOX IMVI
MDA-MB-231 = test system: MDA-MB-231
K562 = test system: K562
UACC-257 = test system: UACC-257
RXF 393 = test system: RXF 393
TK-10 = test system: TK-10
OVCAR-3 = test system: OVCAR-3
OVCAR-4 = test system: OVCAR-4
SNB-19 = test system: SNB-19
Hs-578T = test system: Hs-578T
CCRF-CEM = test system: CCRF-CEM
MDA-MB-435 = test system: MDA-MB-435
CAKI-1 = test system: CAKI-1
HOP-92 = test system: HOP-92
HOP-62 = test system: HOP-62
U-251 = test system: U-251
SF-539 = test system: SF-539
SK-MEL-2 = test system: SK-MEL-2
SN12C = test system: SN12C

Structure (SMILES): Cc1nc2c(=O)[nH]c(=O)nc-2n(CCO)c1C
- GI50 (MDA-N): > 100 µM (inactive)
- GI50 (HCC 2998): > 100 µM (inactive)
- GI50 (HCT-116): > 100 µM (inactive)
- GI50 (HCT-15): > 100 µM
- GI50 (T47D): > 100 µM (inactive)
- GI50 (NCI/ADR-RES): > 100 µM (inactive)
- GI50 (UO-31): > 100 µM (inactive)
- GI50 (NCI-H23): > 100 µM (inactive)
- GI50 (SF-295): > 100 µM (inactive)
- GI50 (786-0): > 100 µM (inactive)
- GI50 (HT-29): > 100 µM (inactive)
- GI50 (SW-620): > 100 µM (inactive)
- GI50 (M14): > 100 µM (inactive)
- GI50 (DU-145): > 100 µM (inactive)
- GI50 (OVCAR-5): > 100 µM (inactive)
- GI50 (PC-3): > 100 µM (inactive)
- GI50 (SK-MEL-5): > 100 µM (inactive)
- GI50 (COLO 205): > 100 µM (inactive)
- GI50 (SK-OV-3): > 100 µM (inactive)
- GI50 (ACHN): > 100 µM (inactive)
- GI50 (Malme-3M): > 100 µM (inactive)
- GI50 (SF-268): > 100 µM (inactive)
- GI50 (A549): > 100 µM (inactive)
- GI50 (KM12): > 100 µM (inactive)
- GI50 (NCI-H522): > 100 µM (inactive)
- GI50 (A498): > 100 µM (inactive)
- GI50 (SK-MEL-28): > 100 µM (inactive)
- GI50 (RPMI-8226): > 100 µM (inactive)
- GI50 (SR): > 100 µM (inactive)
- GI50 (UACC-62): > 100 µM (inactive)
- GI50 (SNB-75): 82 µM (inactive)
- GI50 (OVCAR-8): > 100 µM (inactive)
- GI50 (EKVX): > 100 µM (inactive)
- GI50 (MCF7): > 100 µM (inactive)
- GI50 (IGROV-1): > 100 µM (inactive)
- GI50 (BT-549): > 100 µM (inactive)
- GI50 (NCI-H460): > 100 µM (inactive)
- GI50 (NCI-H226): > 100 µM (inactive)
- GI50 (MOLT-4): > 100 µM (inactive)
- GI50 (LOX IMVI): > 100 µM (inactive)
- GI50 (MDA-MB-231): > 100 µM (inactive)
- GI50 (K562): > 100 µM (inactive)
- GI50 (UACC-257): > 100 µM (inactive)
- GI50 (RXF 393): > 100 µM (inactive)
- GI50 (TK-10): > 100 µM (inactive)
- GI50 (OVCAR-3): > 100 µM (inactive)
- GI50 (OVCAR-4): > 100 µM (inactive)
- GI50 (SNB-19): > 100 µM (inactive)
- GI50 (Hs-578T): > 100 µM (inactive)
- GI50 (CCRF-CEM): > 100 µM (inactive)
- GI50 (MDA-MB-435): > 100 µM (inactive)
- GI50 (CAKI-1): > 100 µM (inactive)
- GI50 (HOP-92): > 100 µM (inactive)
- GI50 (HOP-62): > 100 µM (inactive)
- GI50 (U-251): > 100 µM (inactive)
- GI50 (SF-539): > 100 µM (inactive)
- GI50 (SK-MEL-2): > 100 µM (inactive)
- GI50 (SN12C): > 100 µM (inactive)
